According to paper PMC8359193, “Summary of reference chemicals evaluated by the fish short‐term reproduction assay, OECD TG229, using Japanese Medaka, Oryzias latipes” (Journal of Applied Toxicology, 2021):

Test system: Japanese medaka (Oryzias latipes)
Assay: Fish short-term reproduction assay (FSTRA, OECD TG229), 21-day flow-through exposure
Conditions: for Fertility rate (%) / Mortality (%) Female / Mortality (%) Male / Number of fertilized eggs / Number of total eggs / SSC Female / SSC Male / VTG (ng/mg of liver) Female / VTG (ng/mg of liver) Male: 21 days; for GSI Female / GSI Male / HSI Female / HSI Male / Length Female / Length Male / Weight Female / Weight Male: at completion of exposure; for effect on fecundity (number of total eggs), in words: within the test concentrations
How it was run: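 Japanese medaka (NIES-R strain, 16 ± 2 weeks old) were exposed in flow-through tanks for 3 weeks, three males and three females per tank, four replicate tanks per group, with a dilution water control. Concentrations were spaced by a factor of 2–5. Eggs were collected daily and counted as fertilized or unfertilized.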

Compound: CC(=O)N1CCN(c2ccc(OCC3COC(Cn4ccnc4)(c4ccc(Cl)cc4Cl)O3)cc2)CC1 (centres unmarked) [KCZ, Ketoconazole]
- effect on male SSC, in words (21-day exposure): statistical significance
- LOEC for decrease of VTG in females (hepatic VTG, 21-day exposure, measured conc.): 233 µg/L
- Fertility rate (%) (measured conc. 105 μg/L): 91%
- Mortality (%) Female (measured conc. 105 μg/L): 0%
- Mortality (%) Male (measured conc. 105 μg/L): 0%
- Number of fertilized eggs (measured conc. 105 μg/L): 22
- Number of total eggs (measured conc. 105 μg/L): 24 ± 1.1 /female/day
- SSC Female (measured conc. 105 μg/L): 0 ± 0
- SSC Male (measured conc. 105 μg/L): 82 ± 10
- VTG (ng/mg of liver) Female (measured conc. 105 μg/L): 618 ± 81 ng/mg of liver
- VTG (ng/mg of liver) Male (measured conc. 105 μg/L): 1.4 ± 0.3 ng/mg of liver
- GSI Female (measured conc. 105 μg/L): 11.6%
- GSI Male (measured conc. 105 μg/L): 1.08%
- HSI Female (measured conc. 105 μg/L): 4.2%
- HSI Male (measured conc. 105 μg/L): 1.9%
- Length Female (measured conc. 105 μg/L): 33.2 mm
- Length Male (measured conc. 105 μg/L): 32.7 mm
- Weight Female (measured conc. 105 μg/L): 387 mg
- Weight Male (measured conc. 105 μg/L): 381 mg
- Fertility rate (%) (measured conc. 233 μg/L): 89%
- Mortality (%) Female (measured conc. 233 μg/L): 0%
- Mortality (%) Male (measured conc. 233 μg/L): 0%
- Number of fertilized eggs (measured conc. 233 μg/L): 18
- Number of total eggs (measured conc. 233 μg/L): 20 ± 1.6 /female/day
- SSC Female (measured conc. 233 μg/L): 0 ± 0
- SSC Male (measured conc. 233 μg/L): 116 ± 25
- VTG (ng/mg of liver) Female (measured conc. 233 μg/L): 542 ± 353 ng/mg of liver
- VTG (ng/mg of liver) Male (measured conc. 233 μg/L): 1.3 ± 0.1 ng/mg of liver
- GSI Female (measured conc. 233 μg/L): 12.0%
- GSI Male (measured conc. 233 μg/L): 1.26%
- HSI Female (measured conc. 233 μg/L): 8.8%
- HSI Male (measured conc. 233 μg/L): 3.8%
- Length Female (measured conc. 233 μg/L): 33.3 mm
- Length Male (measured conc. 233 μg/L): 33.3 mm
- Weight Female (measured conc. 233 μg/L): 419 mg
- Weight Male (measured conc. 233 μg/L): 416 mg
- Fertility rate (%) (measured conc. 405 μg/L): 81%
- Mortality (%) Female (measured conc. 405 μg/L): 8%
- Mortality (%) Male (measured conc. 405 μg/L): 0%
- Number of fertilized eggs (measured conc. 405 μg/L): 9.0
- Number of total eggs (measured conc. 405 μg/L): 11 ± 4.4 /female/day
- SSC Female (measured conc. 405 μg/L): 0 ± 0
- SSC Male (measured conc. 405 μg/L): 91 ± 13
- VTG (ng/mg of liver) Female (measured conc. 405 μg/L): 190 ± 123 ng/mg of liver
- VTG (ng/mg of liver) Male (measured conc. 405 μg/L): 1.1 ± 0.1 ng/mg of liver
- GSI Female (measured conc. 405 μg/L): 13.6%
- GSI Male (measured conc. 405 μg/L): 0.98%
- HSI Female (measured conc. 405 μg/L): 12.1%
- HSI Male (measured conc. 405 μg/L): 3.5%
- Length Female (measured conc. 405 μg/L): 32.6 mm
- Length Male (measured conc. 405 μg/L): 32.4 mm
- Weight Female (measured conc. 405 μg/L): 410 mg
- Weight Male (measured conc. 405 μg/L): 404 mg
- Fertility rate (%) (measured conc. 795 μg/L): 76%
- Mortality (%) Female (measured conc. 795 μg/L): 42%
- Mortality (%) Male (measured conc. 795 μg/L): 58%
- Number of fertilized eggs (measured conc. 795 μg/L): 3.5
- Number of total eggs (measured conc. 795 μg/L): 4.7 ± 0.9 /female/day
- SSC Female (measured conc. 795 μg/L): 0 ± 0
- SSC Male (measured conc. 795 μg/L): 80 ± 22
- VTG (ng/mg of liver) Female (measured conc. 795 μg/L): 56 ± 95 ng/mg of liver
- VTG (ng/mg of liver) Male (measured conc. 795 μg/L): 1.1 ± 0.1 ng/mg of liver
- GSI Female (measured conc. 795 μg/L): 11.0%
- GSI Male (measured conc. 795 μg/L): 1.35%
- HSI Female (measured conc. 795 μg/L): 11.8%
- HSI Male (measured conc. 795 μg/L): 5.1%
- Length Female (measured conc. 795 μg/L): 31.7 mm
- Length Male (measured conc. 795 μg/L): 30.2 mm
- Weight Female (measured conc. 795 μg/L): 376 mg
- Weight Male (measured conc. 795 μg/L): 282 mg
- effect on fecundity (number of total eggs), in words (21-day exposure): significant difference from the control

Compound: C[C@]12CCC(=O)C=C1CC[C@@H]1[C@@H]2CC[C@@]2(C)[C@H]1CC[C@]2(C)O [MT, 17α‐methyltestosterone]
- effect on female hepatic VTG, in words (21-day exposure): decreased
- LOEC on female SSC (papillary process formation on anal fin) (21-day exposure, measured conc.): 20.1 ng/L
- Fertility rate (%) (measured conc. 20.1 ng/L): 89%
- Mortality (%) Female (measured conc. 20.1 ng/L): 0%
- Mortality (%) Male (measured conc. 20.1 ng/L): 0%
- Number of fertilized eggs (measured conc. 20.1 ng/L): 23
- Number of total eggs (measured conc. 20.1 ng/L): 25 ± 4.6 /female/day
- SSC Female (measured conc. 20.1 ng/L): 28 ± 2.0
- SSC Male (measured conc. 20.1 ng/L): 104 ± 12
- VTG (ng/mg of liver) Female (measured conc. 20.1 ng/L): 1,650 ± 134 ng/mg of liver
- VTG (ng/mg of liver) Male (measured conc. 20.1 ng/L): 1.5 ± 0.3 ng/mg of liver
- GSI Female (measured conc. 20.1 ng/L): 13.5%
- GSI Male (measured conc. 20.1 ng/L): 0.68%
- HSI Female (measured conc. 20.1 ng/L): 4.8%
- HSI Male (measured conc. 20.1 ng/L): 2.5%
- Length Female (measured conc. 20.1 ng/L): 36.1 mm
- Length Male (measured conc. 20.1 ng/L): 37.3 mm
- Weight Female (measured conc. 20.1 ng/L): 592 mg
- Weight Male (measured conc. 20.1 ng/L): 546 mg
- Fertility rate (%) (measured conc. 77.4 ng/L): 80%
- Mortality (%) Female (measured conc. 77.4 ng/L): 0%
- Mortality (%) Male (measured conc. 77.4 ng/L): 0%
- Number of fertilized eggs (measured conc. 77.4 ng/L): 8.1
- Number of total eggs (measured conc. 77.4 ng/L): 10 ± 2.9 /female/day
- SSC Female (measured conc. 77.4 ng/L): 78 ± 7.9
- SSC Male (measured conc. 77.4 ng/L): 106 ± 7.6
- VTG (ng/mg of liver) Female (measured conc. 77.4 ng/L): 1,080 ± 391 ng/mg of liver
- VTG (ng/mg of liver) Male (measured conc. 77.4 ng/L): 2.1 ± 0.3 ng/mg of liver
- GSI Female (measured conc. 77.4 ng/L): 18.6%
- GSI Male (measured conc. 77.4 ng/L): 0.78%
- HSI Female (measured conc. 77.4 ng/L): 4.4%
- HSI Male (measured conc. 77.4 ng/L): 2.4%
- Length Female (measured conc. 77.4 ng/L): 36.7 mm
- Length Male (measured conc. 77.4 ng/L): 38.3 mm
- Weight Female (measured conc. 77.4 ng/L): 694 mg
- Weight Male (measured conc. 77.4 ng/L): 603 mg
- Fertility rate (%) (measured conc. 300 ng/L): 79%
- Mortality (%) Female (measured conc. 300 ng/L): 8.3%
- Mortality (%) Male (measured conc. 300 ng/L): 0%
- Number of fertilized eggs (measured conc. 300 ng/L): 1.4
- Number of total eggs (measured conc. 300 ng/L): 1.8 ± 1.1 /female/day
- SSC Female (measured conc. 300 ng/L): 85 ± 11
- SSC Male (measured conc. 300 ng/L): 112 ± 7.1
- VTG (ng/mg of liver) Female (measured conc. 300 ng/L): 320 ± 266 ng/mg of liver
- VTG (ng/mg of liver) Male (measured conc. 300 ng/L): 1.9 ± 0.6 ng/mg of liver
- GSI Female (measured conc. 300 ng/L): 12.6%
- GSI Male (measured conc. 300 ng/L): 0.68%
- HSI Female (measured conc. 300 ng/L): 4.2%
- HSI Male (measured conc. 300 ng/L): 2.5%
- Length Female (measured conc. 300 ng/L): 37.0 mm
- Length Male (measured conc. 300 ng/L): 37.5 mm
- Weight Female (measured conc. 300 ng/L): 654 mg
- Weight Male (measured conc. 300 ng/L): 561 mg
- effect on fecundity (number of total eggs), in words (21-day exposure): significantly reduced
